Structures are written as SMILES.

One test deals with recombinant human HDAC6 (Homo sapiens (Human), UniProt Q9UBN7). Put plainly: Enzymatic screening, HDAC6 inhibition (fluorogenic FdL_G substrate). It counts as biochemical. The procedure, abridged:
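Enzyme was preincubated with compound (8 doses, triplicate, 1% DMSO) in 25 mM Tris-HCl pH 8, 130 mM NaCl, 0.05% Tween-20, 10% glycerol, with BSA. A FLUOR DE LYS-Green substrate was then added, and fluorescence was read after developer plus 2 μM TSA.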

A further test addresses recombinant human HDAC1 (Homo sapiens (Human), UniProt Q13547). Description: Enzymatic screening, HDAC1 inhibition (fluorogenic FdL_G substrate). It counts as biochemical. The essentials:
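Recombinant human HDAC1 inhibition was measured fluorometrically using the FLUOR DE LYS-Green (FdL_G) substrate. Compounds at 8 doses (1% DMSO final) in Tris-HCl pH 8 buffer with NaCl, Tween-20 and glycerol were preincubated in triplicate with enzyme and 1 mg/mL BSA, then given substrate. Developer I plus 2 μM TSA was added, and fluorescence read after 25 minutes in the dark.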

Chain of recombinant human HDAC6 (Q9UBN7 whole entry): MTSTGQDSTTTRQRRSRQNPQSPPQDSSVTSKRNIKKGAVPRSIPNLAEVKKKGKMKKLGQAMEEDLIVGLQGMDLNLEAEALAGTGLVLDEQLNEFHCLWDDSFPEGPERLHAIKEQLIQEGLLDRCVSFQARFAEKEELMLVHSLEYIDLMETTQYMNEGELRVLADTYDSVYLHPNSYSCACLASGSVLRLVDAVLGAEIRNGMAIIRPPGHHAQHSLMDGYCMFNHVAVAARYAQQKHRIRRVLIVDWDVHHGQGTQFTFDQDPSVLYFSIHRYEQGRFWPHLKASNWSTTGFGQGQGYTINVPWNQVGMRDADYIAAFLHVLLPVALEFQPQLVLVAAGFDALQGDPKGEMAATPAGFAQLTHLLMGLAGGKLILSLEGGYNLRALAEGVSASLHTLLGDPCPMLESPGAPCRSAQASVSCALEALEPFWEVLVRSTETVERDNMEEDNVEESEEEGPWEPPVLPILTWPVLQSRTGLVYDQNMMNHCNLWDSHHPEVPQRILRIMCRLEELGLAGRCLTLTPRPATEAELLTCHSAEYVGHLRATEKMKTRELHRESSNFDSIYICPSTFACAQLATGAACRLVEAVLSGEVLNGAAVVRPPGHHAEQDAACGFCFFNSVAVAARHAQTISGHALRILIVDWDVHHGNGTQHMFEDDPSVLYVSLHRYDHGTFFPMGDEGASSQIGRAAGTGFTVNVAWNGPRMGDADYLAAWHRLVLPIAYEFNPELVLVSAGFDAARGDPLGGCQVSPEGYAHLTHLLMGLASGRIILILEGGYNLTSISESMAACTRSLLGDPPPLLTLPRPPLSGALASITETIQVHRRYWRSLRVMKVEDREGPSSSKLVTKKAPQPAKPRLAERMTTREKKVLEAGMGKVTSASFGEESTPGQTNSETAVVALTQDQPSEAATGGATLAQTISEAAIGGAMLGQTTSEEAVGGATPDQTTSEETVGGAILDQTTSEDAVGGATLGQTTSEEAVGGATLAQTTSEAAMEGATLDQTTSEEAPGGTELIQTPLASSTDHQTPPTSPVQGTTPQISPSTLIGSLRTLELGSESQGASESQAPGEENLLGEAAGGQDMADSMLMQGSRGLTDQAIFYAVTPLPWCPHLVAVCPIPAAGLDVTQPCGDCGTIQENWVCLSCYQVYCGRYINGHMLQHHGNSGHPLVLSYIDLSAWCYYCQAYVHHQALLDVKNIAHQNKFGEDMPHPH
Chain of recombinant human HDAC1 (Q13547 whole entry): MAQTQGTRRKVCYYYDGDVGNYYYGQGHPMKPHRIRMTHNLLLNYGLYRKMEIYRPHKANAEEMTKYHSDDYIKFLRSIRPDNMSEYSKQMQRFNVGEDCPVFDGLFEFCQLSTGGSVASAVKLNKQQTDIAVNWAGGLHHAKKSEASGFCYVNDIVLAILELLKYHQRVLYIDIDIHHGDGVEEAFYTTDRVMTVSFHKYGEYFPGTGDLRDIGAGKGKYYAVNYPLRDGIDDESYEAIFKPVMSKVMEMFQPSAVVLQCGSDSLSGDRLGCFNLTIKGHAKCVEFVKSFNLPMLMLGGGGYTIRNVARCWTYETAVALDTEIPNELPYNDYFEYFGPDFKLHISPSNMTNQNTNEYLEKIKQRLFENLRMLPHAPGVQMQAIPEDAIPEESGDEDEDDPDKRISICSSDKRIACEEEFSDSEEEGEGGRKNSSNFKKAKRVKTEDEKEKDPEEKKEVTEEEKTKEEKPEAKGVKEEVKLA

What is called IC50 is the midpoint of a concentration-inhibition curve. Take `[2H]C([2H])(c1ccc(-c2nnc(C(F)F)o2)cc1)n1cc(-c2cccc(NC(=O)N3CCOCC3)c2)nn1` [compound 352, N-[3-[1-[dideuterio-[4-[5-(difluoromethyl)-1,3,4-oxadiazol-2-yl]phenyl]methyl]triazol-4-yl]phenyl]morpholine-4-carboxamide]: the results for the IC50 at recombinant human HDAC6 and on recombinant human HDAC1 were 0.06 µM and more than 1000 µM, respectively.

Consider `CC(C)(C)OC(=O)N1CCC2(CC1)Nc1ccc(-c3cn(Cc4ccc(-c5nnc(C(F)F)o5)cc4)nn3)cc1NC2=O` [compound 279, tert-butyl 6′-(1-(4-(5-(difluoromethyl)-1,3,4-oxadiazol-2-yl)benzyl)-1H-1,2,3-triazol-4-yl)-3′-oxo-3′,4′-dihydro-1′H-spiro[piperidine-4,2′-quinoxaline]-1-carboxylate], for which the IC50 is 0.286 µM at recombinant human HDAC6 and more than 200 µM at recombinant human HDAC1.

In the case of `NC(=O)c1cccc(-c2cnn(Cc3ccc(-c4nnc(C(F)F)o4)cn3)c2)c1` [compound 334, 3-[1-[[5-[5-(difluoromethyl)-1,3,4-oxadiazol-2-yl]pyridin-2-yl]methyl]pyrazol-4-yl]benzamide], the IC50 at recombinant human HDAC6 is 0.065 µM; on recombinant human HDAC1 it was more than 1000 µM.

For the compound `NCc1ccc(-c2cn(Cc3c(F)cc(-c4nnc(C(F)F)o4)cc3F)nn2)cn1` [compound 101, (5-(1-(4-(5-(difluoromethyl)-1,3,4-oxadiazol-2-yl)-2,6-difluorobenzyl)-1H-1,2,3-triazol-4-yl)pyridin-2-yl)methanamine], the IC50 is 0.039 µM on recombinant human HDAC6 and more than 200 µM on recombinant human HDAC1.

Regarding `Fc1cccc(-c2cn(Cc3ccc(-c4nnc(C(F)F)o4)cc3)nn2)c1` [compound 248, 2-(difluoromethyl)-5-(4-((4-(3-fluorophenyl)-1H-1,2,3-triazol-1-yl)methyl)phenyl)-1,3,4-oxadiazole], the IC50 was 0.275 µM at recombinant human HDAC6 and more than 200 µM at recombinant human HDAC1.

In the case of `O=C(c1cccc(-c2nnn(Cc3ccc(-c4nnc(C(F)F)o4)c(F)c3)n2)c1)N1CCOCC1` [compound 137, (3-(2-(4-(5-(difluoromethyl)-1,3,4-oxadiazol-2-yl)-3-fluorobenzyl)-2H-tetrazol-5-yl)phenyl)(morpholino)methanone], the IC50 was 0.053 µM on recombinant human HDAC6 and more than 200 µM on recombinant human HDAC1.

`FC(F)c1nnc(-c2ccc(Cn3nnc(-c4cccs4)n3)cc2)o1` [compd. 261, 2-(difluoromethyl)-5-(4-((5-(thiophen-2-yl)-2H-tetrazol-2-yl)methyl)phenyl)-1,3,4-oxadiazole]: the IC50 at recombinant human HDAC6 is 0.181 µM; on recombinant human HDAC1, more than 200 µM.

Consider `CCNc1ccc2cc(-c3nnn(Cc4ccc(-c5nnc(C(F)F)o5)c(F)c4)n3)ccc2n1` [compound 410, 6-(2-(4-(5-(difluoromethyl)-1,3,4-oxadiazol-2-yl)-3-fluorobenzyl)-2H-tetrazol-5-yl)-N-ethylquinolin-2-amine], for which the IC50 at recombinant human HDAC6 stood at 0.348 µM; at recombinant human HDAC1 it was 1000 µM.

With `Fc1cc(Cc2nc(-c3ccc(NC4=NCCN4)cc3)no2)ccc1-c1nnc(C(F)F)o1` [compound 383, N-(4-(5-(4-(5-(difluoromethyl)-1,3,4-oxadiazol-2-yl)-3-fluorobenzyl)-1,2,4-oxadiazol-3-yl)phenyl)-4,5-dihydro-1H-imidazol-2-amine], the IC50 on recombinant human HDAC6 is 0.013 µM; at recombinant human HDAC1 it was more than 1000 µM.

Take `CS(=O)(=O)NCCC(c1ccc(-c2nnc(C(F)F)o2)cn1)n1cc(-c2ccc(N)nc2)nn1` (stereo not drawn) [Compd. 293, N-(3-(4-(6-aminopyridin-3-yl)-1H-1,2,3-triazol-1-yl)-3-(5-(5-(difluoromethyl)-1,3,4-oxadiazol-2-yl)pyridin-2-yl)propyl)methanesulfonamide]: the results for the IC50 at recombinant human HDAC6 and at recombinant human HDAC1 were 0.031 µM and more than 200 µM, respectively.

Turning to `Nc1ccc(-c2cn(C(CO)c3ccc(-c4nnc(C(F)F)o4)cc3)nn2)cn1` (stereo not drawn) [Compd. 94, 2-(4-(6-aminopyridin-3-yl)-1H-1,2,3-triazol-1-yl)-2-(4-(5-(difluoromethyl)-1,3,4-oxadiazol-2-yl)phenyl)ethan-1-ol], the IC50 at recombinant human HDAC6 is 0.036 µM; at recombinant human HDAC1, more than 200 µM.

Turning to `CN1CCc2ccc(-c3nnn(Cc4ccc(-c5nnc(C(F)F)o5)cc4)n3)cc2C1=O` [compound 173, 7-(2-(4-(5-(difluoromethyl)-1,3,4-oxadiazol-2-yl)benzyl)-2H-tetrazol-5-yl)-2-methyl-3,4-dihydroisoquinolin-1 (2H)-one], the IC50 on recombinant human HDAC6 was 0.086 µM; on recombinant human HDAC1 it was more than 200 µM.

For `O=C1NCc2ccc(-c3cn(Cc4ccc(-c5nnc(C(F)F)o5)cc4)cn3)cc21` [compound 294, 6-(1-(4-(5-(difluoromethyl)-1,3,4-oxadiazol-2-yl)benzyl)-1H-imidazol-4-yl)isoindolin-1-one], the IC50 at recombinant human HDAC6 is 0.078 µM; on recombinant human HDAC1 it was more than 200 µM.

As for `CC(=O)Nc1cccc(-c2cn(Cc3c(F)cc(-c4nnc(C(F)F)o4)cc3F)nn2)c1` [compound 70, N-(3-(1-(4-(5-(difluoromethyl)-1,3,4-oxadiazol-2-yl)-2,6-difluorobenzyl)-1H-1,2,3-triazol-4-yl)phenyl)acetamide], the IC50 is 0.034 µM on recombinant human HDAC6 and more than 200 µM on recombinant human HDAC1.

For `CC1(C)C(=O)Nc2ccc(-c3cn(Cc4ccc(-c5nnc(C(F)F)o5)cn4)nn3)cc21` [compound 324, 5-[1-[[5-[5-(difluoromethyl)-1,3,4-oxadiazol-2-yl]pyridin-2-yl]methyl]triazol-4-yl]-3,3-dimethyl-1H-indol-2-one], the IC50 was 0.018 µM at recombinant human HDAC6 and more than 1000 µM at recombinant human HDAC1.

In the case of `Nc1nc2ccc(-c3cn(Cc4ncc(-c5nnc(C(F)F)o5)cc4F)nn3)cc2s1` [compound 342, 6-[1-[[5-[5-(difluoromethyl)-1,3,4-oxadiazol-2-yl]-3-fluoropyridin-2-yl]methyl]triazol-4-yl]-1,3-benzothiazol-2-amine], the IC50 at recombinant human HDAC6 is 0.032 µM; at recombinant human HDAC1 it was more than 1000 µM.

On to `O=C1NCc2ccc(-c3nnnn3Cc3ncc(-c4nnc(C(F)F)o4)cn3)cc21` [compound 298, 6-(1-((5-(5-(difluoromethyl)-1,3,4-oxadiazol-2-yl)pyrimidin-2-yl)methyl)-1H-tetrazol-5-yl)isoindolin-1-one], for which the IC50 at recombinant human HDAC6 is 0.151 µM; on recombinant human HDAC1, more than 200 µM.

Regarding `CC(=O)N1CCC(c2nnn(Cc3ccc(-c4nnc(C(F)F)o4)cc3)n2)CC1` [compound 257, 1-(4-(2-(4-(5-(difluoromethyl)-1,3,4-oxadiazol-2-yl)benzyl)-2H-tetrazol-5-yl)piperidin-1-yl)ethan-1-one], the IC50 is 0.395 µM at recombinant human HDAC6 and more than 200 µM at recombinant human HDAC1.

For the compound `CC1(C)CN(c2cccc(-c3cn(Cc4c(F)cc(-c5nnc(C(F)F)o5)cc4F)nn3)c2)C1=O` [compound 92, 1-(3-(1-(4-(5-(difluoromethyl)-1,3,4-oxadiazol-2-yl)-2,6-difluorobenzyl)-1H-1,2,3-triazol-4-yl)phenyl)-3,3-dimethylazetidin-2-one], the half-inhibitory concentration (IC50) at recombinant human HDAC6 was 0.035 µM; on recombinant human HDAC1, more than 200 µM.

Consider `FC(F)c1nnc(-c2ccc(Cn3cc(-c4ccc(NC5=NCCN5)cc4)nn3)nc2)o1` [compd. 24, N-(4-(1-((5-(5-(difluoromethyl)-1,3,4-oxadiazol-2-yl)pyridin-2-yl)methyl)-1H-1,2,3-triazol-4-yl)phenyl)-4,5-dihydro-1H-imidazol-2-amine], for which the IC50 is 0.007 µM on recombinant human HDAC6 and more than 200 µM on recombinant human HDAC1.

As to `CC(c1ccc(-c2nnc(C(F)F)o2)cn1)n1cc(-c2cccc(NC(=O)N3CCOCC3)c2)nn1` (stereo not drawn) [compound 66, N-(3-(1-(1-(5-(5-(difluoromethyl)-1,3,4-oxadiazol-2-yl)pyridin-2-yl)ethyl)-1H-1,2,3-triazol-4-yl)phenyl)morpholine-4-carboxamide], the results for the IC50 at recombinant human HDAC6 and at recombinant human HDAC1 were 0.028 µM and more than 200 µM, respectively.

Turning to `Nc1ccc(-c2cn(Cc3ccc(-c4nnc(C(F)F)o4)cc3Cl)nn2)cn1` [compound 134, 5-(1-(2-chloro-4-(5-(difluoromethyl)-1,3,4-oxadiazol-2-yl)benzyl)-1H-1,2,3-triazol-4-yl)pyridin-2-amine], the IC50 at recombinant human HDAC6 is 0.052 µM; at recombinant human HDAC1, more than 200 µM.

With `NCc1ccc(-c2nnn(Cc3ccc(-c4nnc(C(F)F)o4)cc3)n2)cc1` [compound 43, (4-(2-(4-(5-(difluoromethyl)-1,3,4-oxadiazol-2-yl)benzyl)-2H-tetrazol-5-yl)phenyl)methanamine], the IC50 on recombinant human HDAC6 amounted to 0.02 µM; at recombinant human HDAC1 it was 74.9 µM.

On to `Nc1ccc(-c2cn(Cc3ccc(-c4nnc(C(F)F)o4)cc3F)nn2)cn1` [compound 48, 5-(1-(4-(5-(difluoromethyl)-1,3,4-oxadiazol-2-yl)-2-fluorobenzyl)-1H-1,2,3-triazol-4-yl)pyridin-2-amine], for which the figures for the IC50 at recombinant human HDAC6 and on recombinant human HDAC1 were 0.021 µM and more than 30 µM, respectively.

As to `O=C1Nc2ccc(-c3cn(Cc4ccc(-c5nnc(C(F)F)o5)cc4)nn3)cc2C12CCCC2` [compound 61, 5′-(1-(4-(5-(difluoromethyl)-1,3,4-oxadiazol-2-yl)benzyl)-1H-1,2,3-triazol-4-yl)spiro[cyclopentane-1,3′-indolin]-2′-one], the IC50 at recombinant human HDAC6 was 0.027 µM; on recombinant human HDAC1, more than 200 µM.

On to `Nc1nc2cc(-c3cn(Cc4ccc(-c5nnc(C(F)F)o5)cc4)nn3)ccc2s1` [compound 132, 5-(1-(4-(5-(difluoromethyl)-1,3,4-oxadiazol-2-yl)benzyl)-1H-1,2,3-triazol-4-yl)benzo[d]thiazol-2-amine], for which the figures for the IC50 on recombinant human HDAC6 and at recombinant human HDAC1 were 0.051 µM and more than 200 µM, respectively.

On to `NC(=O)c1cccc(-c2cnn(Cc3ccc(-c4nnc(C(F)F)o4)cc3)c2)c1` [compound 333, 3-[1-[[4-[5-(difluoromethyl)-1,3,4-oxadiazol-2-yl]phenyl]methyl]pyrazol-4-yl]benzamide], for which the IC50 at recombinant human HDAC6 was 0.321 µM; at recombinant human HDAC1, more than 1000 µM.
